Earlier results as cited in patent publication US9168282B2, “Method for treating neuronal damage and neurological diseases” (priority 2009, dated 2015).

What was measured:
herpes zoster patients [1] = details: 500 mg of Famciclovir three times per day, 7 days, meta-analysis data (Can Fam Physician 2008)
herpes zoster patients [2] = details: Famciclovir 500 mg three times per day, 7 days, meta-analysis data (Can Fam Physician 2008)

Q: With `CC(=O)OCC(CCn1cnc2cnc(N)nc21)COC(C)=O` [Famciclovir] as the compound, how does the “Median of time required for generating scab over the whole skin lesion” value (herpes zoster patients [1]) read?
A: The value was 5 days.

Q: What about the “Median of time required for relieving pain” value (herpes zoster patients [2]) of the same compound?
A: Its value is 20 days.
